Results reported in PubChem BioAssay (NCI).
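Following 48 hours of exposure in 96-well plates, responses at five concentrations were used to interpolate endpoints linearly. Here, GI50 denotes the concentration required for 50% inhibition of growth. TGI: total growth inhibition.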

Key:
Experiment in all cases: DTP human tumour cell line panel, 48 h
CCRF-CEM leukemia = test system: CCRF-CEM leukemia
DU-145 prostate = test system: DU-145 prostate
HCT-15 colon = test system: HCT-15 colon
HT29 colon = test system: HT29 colon
IGROV1 ovarian = test system: IGROV1 ovarian
LOX IMVI melanoma = test system: LOX IMVI melanoma
OVCAR-8 ovarian = test system: OVCAR-8 ovarian
SNB-19 CNS = test system: SNB-19 CNS
SW-620 colon = test system: SW-620 colon
UACC-62 melanoma = test system: UACC-62 melanoma

`COc1cccc(N2C(=N)/C(=C3\Nc4ccccc4S3)CC2=O)c1` gave a GI50 (CCRF-CEM leukemia) of 1910 nM, a TGI (CCRF-CEM leukemia) of over 100 µM and a GI50 (DU-145 prostate) of 44.3 µM. The TGI (DU-145 prostate) was over 100 µM, the GI50 (HCT-15 colon) was 815 nM and the TGI (HCT-15 colon) was over 100 µM. It also gave a GI50 (HT29 colon) of 3340 nM, a TGI (HT29 colon) of over 100 µM and a GI50 (IGROV1 ovarian) of 7.58 µM. The TGI (IGROV1 ovarian) was over 100 µM, the GI50 (LOX IMVI melanoma) was 3.21 µM and the TGI (LOX IMVI melanoma) was over 100 µM. For the same compound, the GI50 (OVCAR-8 ovarian) was 7900 nM, the TGI (OVCAR-8 ovarian) was over 100 µM and the GI50 (SNB-19 CNS) was 18.9 µM. The TGI (SNB-19 CNS) was over 100 µM, the GI50 (SW-620 colon) was 4.87 µM and the TGI (SW-620 colon) was over 100 µM. For the same compound, the GI50 (UACC-62 melanoma) was over 100000 nM and the TGI (UACC-62 melanoma) was over 100 µM.

Work on `Cc1ccc2c(-c3ccnc(Nc4cccc(C(F)(F)F)c4)n3)c(-c3ccccc3)nn2n1` yielded a GI50 (CCRF-CEM leukemia) of 7770 nM, a TGI (CCRF-CEM leukemia) of over 25 µM and a GI50 (DU-145 prostate) of 12.3 µM. The TGI (DU-145 prostate) was 24.4 µM, the GI50 (HCT-15 colon) was 5340 nM and the TGI (HCT-15 colon) was over 19 µM. The GI50 (HT29 colon) was 2280 nM, the TGI (HT29 colon) was over 15.5 µM and the GI50 (IGROV1 ovarian) was 2.1 µM. It also gave a TGI (IGROV1 ovarian) of 24.4 µM, a GI50 (LOX IMVI melanoma) of 4.92 µM and a TGI (LOX IMVI melanoma) of over 17.2 µM. The GI50 (OVCAR-8 ovarian) was 9270 nM, the TGI (OVCAR-8 ovarian) was over 25 µM and the GI50 (SNB-19 CNS) was over 17.9 µM. For the same compound, the TGI (SNB-19 CNS) was over 25 µM, the GI50 (SW-620 colon) was 7.81 µM and the TGI (SW-620 colon) was over 22.5 µM. It also gave a GI50 (UACC-62 melanoma) of 6380 nM and a TGI (UACC-62 melanoma) of over 16.1 µM.

For `CCOC(=O)C(Cc1ccccc1)n1c(O)c(/C=N/c2ncc(Cc3ccc(Cl)cc3Cl)s2)sc1=S` (stereo not drawn), the GI50 (CCRF-CEM leukemia) was 1870 nM, the TGI (CCRF-CEM leukemia) was over 100 µM and the GI50 (DU-145 prostate) was 3.9 µM. The TGI (DU-145 prostate) was over 100 µM, the GI50 (HCT-15 colon) was 548 nM and the TGI (HCT-15 colon) was over 100 µM. The GI50 (HT29 colon) was 2240 nM, the TGI (HT29 colon) was 7.7 µM and the GI50 (IGROV1 ovarian) was 3.73 µM. For the same compound, the TGI (IGROV1 ovarian) was 71.5 µM, the GI50 (LOX IMVI melanoma) was 3.44 µM and the TGI (LOX IMVI melanoma) was 16.5 µM. It also gave a GI50 (OVCAR-8 ovarian) of 2070 nM, a TGI (OVCAR-8 ovarian) of over 100 µM and a GI50 (SNB-19 CNS) of 5.05 µM. For the same compound, the TGI (SNB-19 CNS) was over 100 µM, the GI50 (SW-620 colon) was 3.45 µM and the TGI (SW-620 colon) was over 100 µM. It also gave a GI50 (UACC-62 melanoma) of 1630 nM and a TGI (UACC-62 melanoma) of 6.37 µM.

`Cc1cc(NS(=O)(=O)c2ccc(-c3cnc(C4CC4)o3)cc2)ccc1Cl` showed a GI50 (CCRF-CEM leukemia) of 274 nM, a TGI (CCRF-CEM leukemia) of over 41.1 µM and a GI50 (DU-145 prostate) of 0.455 µM. For the same compound, the TGI (DU-145 prostate) was 15.1 µM, the GI50 (HCT-15 colon) was 116 nM and the TGI (HCT-15 colon) was 12.7 µM. It also gave a GI50 (HT29 colon) of 191 nM, a TGI (HT29 colon) of 3.89 µM and a GI50 (IGROV1 ovarian) of 0.335 µM. It also gave a TGI (IGROV1 ovarian) of 13 µM, a GI50 (LOX IMVI melanoma) of 0.386 µM and a TGI (LOX IMVI melanoma) of 14 µM. It also gave a GI50 (OVCAR-8 ovarian) of 552 nM, a TGI (OVCAR-8 ovarian) of 17.7 µM and a GI50 (SNB-19 CNS) of 0.362 µM. For the same compound, the TGI (SNB-19 CNS) was 16.3 µM, the GI50 (SW-620 colon) was 0.13 µM and the TGI (SW-620 colon) was 15 µM. It also gave a GI50 (UACC-62 melanoma) of 117 nM and a TGI (UACC-62 melanoma) of 12.3 µM.

`COc1cc2c3c(n(CCCNCCCCN)c(=O)c2cc1OC)-c1cc2c(cc1C3=O)OCO2` showed a TGI (CCRF-CEM leukemia) of over 40.1 µM, a GI50 (DU-145 prostate) of 0.0764 µM and a TGI (DU-145 prostate) of 5.16 µM. For the same compound, the GI50 (HCT-15 colon) was 17500 nM, the TGI (HCT-15 colon) was over 54.4 µM and the GI50 (HT29 colon) was 4570 nM. It also gave a TGI (HT29 colon) of over 100 µM, a GI50 (IGROV1 ovarian) of over 21.2 µM and a TGI (IGROV1 ovarian) of over 100 µM. It also gave a GI50 (LOX IMVI melanoma) of 0.226 µM, a TGI (LOX IMVI melanoma) of 10.1 µM and a GI50 (OVCAR-8 ovarian) of 1910 nM. It also gave a TGI (OVCAR-8 ovarian) of 8.6 µM, a GI50 (SNB-19 CNS) of 2.65 µM and a TGI (SNB-19 CNS) of 18.8 µM. For the same compound, the GI50 (SW-620 colon) was 1.4 µM, the TGI (SW-620 colon) was 27.3 µM and the GI50 (UACC-62 melanoma) was 2100 nM. It also gave a TGI (UACC-62 melanoma) of 11.3 µM.

Work on `CCc1nc(N)nc(N)c1-c1ccc(N2CCNCC2)c([N+](=O)[O-])c1` yielded a TGI (CCRF-CEM leukemia) of over 72.1 µM, a TGI (DU-145 prostate) of over 100 µM and a TGI (HCT-15 colon) of over 100 µM. For the same compound, the TGI (HT29 colon) was over 100 µM, the TGI (IGROV1 ovarian) was over 100 µM and the TGI (LOX IMVI melanoma) was over 66.1 µM. The TGI (OVCAR-8 ovarian) was over 100 µM, the TGI (SNB-19 CNS) was over 100 µM and the TGI (SW-620 colon) was over 100 µM. For the same compound, the TGI (UACC-62 melanoma) was over 100 µM.

Work on `O=C(Nc1nc2ccc(OC(F)(F)F)cc2s1)c1ccc(F)cc1` yielded a GI50 (CCRF-CEM leukemia) of 3960 nM, a TGI (CCRF-CEM leukemia) of over 100 µM and a GI50 (DU-145 prostate) of 3.44 µM. The TGI (DU-145 prostate) was over 100 µM, the GI50 (HCT-15 colon) was 3040 nM and the TGI (HCT-15 colon) was 10.5 µM. The GI50 (HT29 colon) was 3880 nM, the TGI (HT29 colon) was over 100 µM and the GI50 (IGROV1 ovarian) was 3.89 µM. The TGI (IGROV1 ovarian) was over 100 µM, the GI50 (LOX IMVI melanoma) was 3.21 µM and the TGI (LOX IMVI melanoma) was 9.03 µM. The GI50 (OVCAR-8 ovarian) was 4220 nM, the TGI (OVCAR-8 ovarian) was over 100 µM and the GI50 (SNB-19 CNS) was 3.74 µM. The TGI (SNB-19 CNS) was over 100 µM, the GI50 (SW-620 colon) was 3.74 µM and the TGI (SW-620 colon) was over 100 µM. For the same compound, the GI50 (UACC-62 melanoma) was 3590 nM and the TGI (UACC-62 melanoma) was 50.3 µM.

Work on `C=C(CC)C(=O)c1ccc(OCC(=O)O)c(Cl)c1Cl` yielded a TGI (CCRF-CEM leukemia) of over 76.3 µM, a TGI (DU-145 prostate) of over 73.2 µM and a TGI (HCT-15 colon) of 58.8 µM. The TGI (HT29 colon) was 36.3 µM, the TGI (IGROV1 ovarian) was 47.5 µM and the TGI (LOX IMVI melanoma) was 29.7 µM. It also gave a TGI (OVCAR-8 ovarian) of 37.2 µM, a TGI (SNB-19 CNS) of 31.3 µM and a TGI (SW-620 colon) of 34.2 µM. For the same compound, the TGI (UACC-62 melanoma) was 30.3 µM.

`COC(=O)NC1=Nc2ccccc2C(=O)NN1` was tested, and the TGI (CCRF-CEM leukemia) was over 100 µM, the TGI (DU-145 prostate) was over 100 µM and the TGI (HCT-15 colon) was over 100 µM. The TGI (HT29 colon) was over 100 µM, the TGI (IGROV1 ovarian) was over 100 µM and the TGI (LOX IMVI melanoma) was over 100 µM. It also gave a TGI (OVCAR-8 ovarian) of over 100 µM, a TGI (SNB-19 CNS) of over 100 µM and a TGI (SW-620 colon) of over 100 µM. It also gave a TGI (UACC-62 melanoma) of over 100 µM.

`CN(C)C/C=C/C(=O)Nc1ccc(C(=O)Nc2cccc(Nc3ncc(Cl)c(-c4c[nH]c5ccccc45)n3)c2)cc1` was tested, and the GI50 (CCRF-CEM leukemia) was under 10 nM, the TGI (CCRF-CEM leukemia) was over 100 µM and the GI50 (DU-145 prostate) was 0.0307 µM. For the same compound, the TGI (DU-145 prostate) was 0.81 µM, the GI50 (HCT-15 colon) was 229 nM and the TGI (HCT-15 colon) was over 100 µM. It also gave a GI50 (HT29 colon) of 38.5 nM, a TGI (HT29 colon) of 0.678 µM and a GI50 (IGROV1 ovarian) of 0.0251 µM. The GI50 (LOX IMVI melanoma) was 0.0133 µM, the TGI (LOX IMVI melanoma) was 0.0856 µM and the GI50 (OVCAR-8 ovarian) was 42.8 nM. For the same compound, the TGI (OVCAR-8 ovarian) was over 100 µM, the GI50 (SNB-19 CNS) was 0.0272 µM and the TGI (SNB-19 CNS) was over 35.3 µM. The GI50 (SW-620 colon) was 0.031 µM, the TGI (SW-620 colon) was 11.3 µM and the GI50 (UACC-62 melanoma) was 43 nM. For the same compound, the TGI (UACC-62 melanoma) was 0.259 µM.
